Laboratory results as given in patent US8309144B2, “Use of a cruciferous protein hydrolysate as a depigmentation agent or for a cosmetic and/or pharmaceutical composition” (ISP Investments Inc., priority 2004, dated 2012).

System: melanin in the epidermis of ex vivo skin
Experiment: Whitening effect on ex vivo skin, Fontana-Masson staining with image analysis of luminosity histograms (Example 5)
Type: cell-based, human
Experimental: Comparative studies were conducted using 1% of a non fermented rapeseed peptide hydrolysate for 72 hours, or 1% arbutin, known for its whitening effect, or a combination of both on ex vivo skin.
Skin biopsies are prepared as described in example 2. Four different conditions are tested: • Condition 1: control, no active ingredient is applied • Condition 2: Arbutin 1% is applied twice a day over a period of 72 hours • Condition 3: non fermented rapeseed extract is applied twice a day over a period of 72 hours • Condition 4: a combination of 1% of a non fermented rapeseed extract and 0.5% arbutin is applied twice a day over a period of 72 hours
A quantitative evaluation of the presence of melanin in the epidermis of the skin samples is carried out histologically, under an optical microscope, using the Fontana-Masson staining method as described in example 2.
To confirm visual observations and quantify the results, image analysis was performed using several image processing steps and analysis of luminosity histograms.
All date were normalized to the length of the basal layer within a given histological section.

SMILES: OC[C@H]1O[C@@H](Oc2ccc(O)cc2)[C@H](O)[C@@H](O)[C@@H]1O [arbutin]
- decrease in melanin content (normalized integrated values of histograms) (ex vivo skin, 1%, 72 hours): 32%
- melanin content, visual observation (in words) (ex vivo skin, 1%, 72 hours): significant decrease in melanin content
- % of decrease (melanin content vs control) (ex vivo skin, applied twice a day over 72 hours, 1% (combination 1%/0.5%)): −31.8%
- Area under curve (luminosity histogram) (ex vivo skin, applied twice a day over 72 hours, 1% (combination 1%/0.5%), control 54517): 46247
- Area/length (normalized to length of basal layer, applied twice a day over 72 hours, control 66.78): 45.53 l/micron
